Measured values: ChEMBL document CHEMBL1212848 (Bioorg Med Chem, 2010)
Calls of active or inactive are those of the source. The rule behind the calls is not given here.

What was measured:
HeLa = assay: Cellular uptake in human HeLa cells assessed as retention time at 2 uM after 48 hrs by HPLC-MS analysis; type: ADME, cell-based
MCF7 [1] = assay: Cytotoxicity against human MCF7 cells assessed as reduction of cell proliferation at 1 nM to 1 uM after 96 hrs by MTT assay; type: functional, cell-based
Cancer cell lines [2] = assay: Cytotoxicity against human cervical cancer cells assessed as reduction of [3H]thymidine incorporation at 2 uM after 24 to 48 hrs by scintillation counting; type: functional, cell-based
MCF7 [3] = assay: Cytotoxicity against human MCF7 cells assessed as reduction of cell proliferation at 6 uM after 96 hrs by MTT assay; type: functional, cell-based
Cancer cell lines [4] = assay: Cytotoxicity against human cervical cancer cells assessed as reduction of [3H]thymidine incorporation at 5 nM after 24 to 48 hrs by scintillation counting; type: functional, cell-based
Estrogen receptor = target: T1, Estrogen receptor (Homo sapiens, UniProt P03372); assay: biochemical
T1 sequence (P03372 whole entry): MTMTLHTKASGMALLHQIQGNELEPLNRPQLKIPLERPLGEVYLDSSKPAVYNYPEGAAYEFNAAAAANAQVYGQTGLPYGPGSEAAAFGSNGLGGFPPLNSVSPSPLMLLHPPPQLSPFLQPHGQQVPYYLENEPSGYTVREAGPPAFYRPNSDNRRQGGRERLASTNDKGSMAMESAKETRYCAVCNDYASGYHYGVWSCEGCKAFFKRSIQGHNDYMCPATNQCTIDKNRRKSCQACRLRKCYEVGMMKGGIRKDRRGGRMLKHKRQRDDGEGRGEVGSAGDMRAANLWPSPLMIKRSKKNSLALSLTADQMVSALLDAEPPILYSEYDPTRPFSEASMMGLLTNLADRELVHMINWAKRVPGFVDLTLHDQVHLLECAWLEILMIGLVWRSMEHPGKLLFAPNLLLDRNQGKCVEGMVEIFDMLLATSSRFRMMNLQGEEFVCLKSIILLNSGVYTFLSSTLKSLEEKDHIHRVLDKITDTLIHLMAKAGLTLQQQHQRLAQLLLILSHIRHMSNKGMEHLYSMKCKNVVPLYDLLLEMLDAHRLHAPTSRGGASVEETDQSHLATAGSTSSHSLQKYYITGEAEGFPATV
Description: Displacement of [2,4,6,7-3H]estradiol from human ERalpha expressed in HeLa cells after 18 hrs by liquid scintillation counting

[5] = target: T2, Estrogen receptor (Homo sapiens) (UniProt P03372); assay: Agonist activity at human ERalpha expressed in human HeLa cells coexpressing ERE-E1b-Luc assessed as transcriptional activation after 48 hrs by luciferase reporter gene assay relative to estradiol; type: functional, cell-based
T2 sequence (whole entry): T1 sequence (P03372 whole entry)

CCCC[N+](C)(C)CCOc1ccc(/C(=C(/CC)c2ccccc2)c2ccccc2)cc1.[Br-] [TAMOXIFEN BUTYL BROMIDE]
Time (HeLa): 10 min
Activity (MCF7 [1]): inactive
Activity (Cancer cell lines [2]): inactive
Activity (MCF7 [3]): Active
Activity (Cancer cell lines [4]): Active
Ki (Estrogen receptor): 13 nM

CC/C(=C(\c1ccccc1)c1ccc(OCC[N+](C)(C)CC)cc1)c1ccccc1.[Br-] [TAMOXIFEN ETHYL BROMIDE]
Time (HeLa): 8 min
Activity (MCF7 [1]): inactive
Activity (MCF7 [3]): Active
Ki (Estrogen receptor): 13.7 nM

CC/C(=C(\c1ccccc1)c1ccc(OCC[N+](C)(C)C(C)C)cc1)c1ccccc1.[Br-] [TAMOXIFEN ISOPROPYL BROMIDE]
Activity [5]: 50%
Time (HeLa): 10 min
Activity (MCF7 [1]): inactive
Activity (Cancer cell lines [2]): inactive
Activity (MCF7 [3]): Active
Activity (Cancer cell lines [4]): Active
Ki (Estrogen receptor): 25.4 nM

CC/C(=C(\c1ccccc1)c1ccc(OCC[N+](C)(C)C)cc1)c1ccccc1.[I-] [TAMOXIFEN METHYL IODIDE]
Time (HeLa): 5 min
Activity (MCF7 [1]): inactive
Activity (MCF7 [3]): Active
Ki (Estrogen receptor): 46.3 nM

CCC[N+](C)(C)CCOc1ccc(/C(=C(/CC)c2ccccc2)c2ccccc2)cc1.[Br-] [TAMOXIFEN PROPYL BROMIDE]
Time (HeLa): 9 min
Activity (MCF7 [1]): inactive
Activity (MCF7 [3]): Active

CC/C(=C(\c1ccccc1)c1ccc(OCCN(C)C)cc1)c1ccccc1 [TAMOXIFEN]
Time (HeLa): 9 min
Activity (MCF7 [1]): inactive
Activity (MCF7 [3]): Active
